Assay results reported in ChEMBL document CHEMBL5723379, “Affinity On-target Cellular Literature for EUbOPEN Chemogenomic Library” (2024).
pEC50, pIC50: −log10 of the molar value.

Experiments:
[1] = target: Sodium- and chloride-dependent glycine transporter 1 (Homo sapiens, UniProt P48067); assay: Affinity On-target Cellular interaction: (Inhibition of [14C]glycine uptake in human neuroblastoma cells transfected with SLC6A9) EUB0002626aCl SLC6A9; assay type: functional, cell-based, BE(2)-C; design: mode of action Inhibitor, recommended concentration 1 uM
[2] = target: Monoacylglycerol lipase ABHD6 (Homo sapiens, UniProt Q9BV23)
[3] = target: T1, Nuclear receptor ROR-gamma (Homo sapiens, UniProt P51449); assay: Affinity On-target Cellular interaction: (Reporter gene assay (HEK293T cells)) EUB0001157a RORC; assay type: functional, cell-based, HEK-293T; design: mode of action Inverse Agonist, recommended concentration 10 uM
T1 sequence (P51449 whole entry): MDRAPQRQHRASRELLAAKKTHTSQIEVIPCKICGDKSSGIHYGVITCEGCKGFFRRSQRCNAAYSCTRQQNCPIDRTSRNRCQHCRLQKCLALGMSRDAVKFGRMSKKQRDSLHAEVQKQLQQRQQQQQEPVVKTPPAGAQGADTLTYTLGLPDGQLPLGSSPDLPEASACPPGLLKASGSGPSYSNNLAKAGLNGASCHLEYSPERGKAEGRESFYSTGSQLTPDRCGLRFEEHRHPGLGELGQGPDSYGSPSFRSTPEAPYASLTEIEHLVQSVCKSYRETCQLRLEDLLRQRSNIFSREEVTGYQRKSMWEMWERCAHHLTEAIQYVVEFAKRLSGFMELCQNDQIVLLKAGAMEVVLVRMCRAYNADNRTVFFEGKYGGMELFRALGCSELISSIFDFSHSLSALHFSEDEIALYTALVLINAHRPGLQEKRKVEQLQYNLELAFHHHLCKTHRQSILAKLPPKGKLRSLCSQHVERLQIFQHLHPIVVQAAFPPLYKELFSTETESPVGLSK

[4] = target: T2, Nuclear receptor ROR-beta (Homo sapiens, UniProt Q92753); assay: Affinity On-target Cellular interaction: (Reporter gene assay (HEK293T cells)) EUB0001157a RORB; assay type: functional, cell-based, HEK-293T; design: mode of action Inverse Agonist, recommended concentration 10 uM
T2 sequence (Q92753 whole entry): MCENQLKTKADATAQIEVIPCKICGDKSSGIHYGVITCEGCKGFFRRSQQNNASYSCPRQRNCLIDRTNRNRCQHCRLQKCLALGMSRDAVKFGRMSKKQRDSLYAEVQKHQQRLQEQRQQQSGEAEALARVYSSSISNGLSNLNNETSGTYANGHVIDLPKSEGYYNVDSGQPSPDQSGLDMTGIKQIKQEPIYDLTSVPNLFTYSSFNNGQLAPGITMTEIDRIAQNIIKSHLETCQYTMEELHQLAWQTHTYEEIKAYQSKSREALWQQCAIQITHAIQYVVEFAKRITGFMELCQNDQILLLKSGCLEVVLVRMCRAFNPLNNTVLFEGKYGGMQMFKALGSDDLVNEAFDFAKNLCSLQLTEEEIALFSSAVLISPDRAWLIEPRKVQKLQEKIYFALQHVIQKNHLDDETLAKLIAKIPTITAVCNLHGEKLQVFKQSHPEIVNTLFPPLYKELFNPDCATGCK

[5] = target: T3, Nuclear receptor ROR-alpha (Homo sapiens, UniProt P35398); assay: Affinity On-target Cellular interaction: (Reporter gene assay (HEK293T cells)) EUB0001157a RORA; assay type: functional, cell-based, HEK-293T; design: mode of action Inverse Agonist, recommended concentration 10 uM
Histone deacetylase 2 = Histone deacetylase 2 (Homo sapiens, UniProt Q92769); assay: Affinity On-target Cellular interaction: (Inhibition of enzyme activity in 293T cells transfected with vector alone) EUB0002519a HDAC2; assay type: functional, cell-based, HEK-293T; design: mode of action Inhibitor, recommended concentration 1 uM
Histone deacetylase 1 = Histone deacetylase 1 (Homo sapiens, UniProt Q13547); assay: Affinity On-target Cellular interaction: (Inhibition of enzyme activity in 293T cells transfected with vector alone) EUB0002519a HDAC1; assay type: functional, cell-based, HEK-293T; design: mode of action Inhibitor, recommended concentration 1 uM
[6] = target: Poly [ADP-ribose] polymerase 1 (Homo sapiens, UniProt P09874); assay: Affinity On-target Cellular interaction: (Inhibition of H2O2 induced PAR formation in Capan-1 cells) EUB0002633aCl PARP1; assay type: functional, cell-based; design: mode of action Inhibitor, recommended concentration 1 uM
[7] = target: T4, Oxysterols receptor LXR-beta (Homo sapiens, UniProt P55055); assay: Affinity On-target Cellular interaction: (Reporter gene assay (HEK293T cells)) EUB0001482aCl NR1H2; assay type: functional, cell-based, HEK-293T; design: mode of action Agonist, recommended concentration 10 uM
T4 sequence (P55055 whole entry): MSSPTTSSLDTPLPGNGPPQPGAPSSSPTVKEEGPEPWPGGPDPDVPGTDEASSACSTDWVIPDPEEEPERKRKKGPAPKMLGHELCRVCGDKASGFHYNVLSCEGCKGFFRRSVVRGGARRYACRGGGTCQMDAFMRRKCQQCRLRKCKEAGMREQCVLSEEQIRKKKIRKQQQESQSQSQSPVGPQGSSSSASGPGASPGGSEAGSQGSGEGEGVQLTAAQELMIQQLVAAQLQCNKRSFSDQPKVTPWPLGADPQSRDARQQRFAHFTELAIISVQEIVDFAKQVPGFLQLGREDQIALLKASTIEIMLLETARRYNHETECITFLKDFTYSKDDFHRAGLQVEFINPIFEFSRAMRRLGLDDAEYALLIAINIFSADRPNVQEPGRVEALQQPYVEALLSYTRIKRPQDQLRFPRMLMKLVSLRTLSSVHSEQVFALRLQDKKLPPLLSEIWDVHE

[8] = target: T5, Oxysterols receptor LXR-alpha (Homo sapiens, UniProt Q13133); assay: Affinity On-target Cellular interaction: (Reporter gene assay (HEK293T cells)) EUB0001482aCl NR1H3; assay type: functional, cell-based, HEK-293T; design: mode of action Agonist, recommended concentration 10 uM
T5 sequence (Q13133 whole entry): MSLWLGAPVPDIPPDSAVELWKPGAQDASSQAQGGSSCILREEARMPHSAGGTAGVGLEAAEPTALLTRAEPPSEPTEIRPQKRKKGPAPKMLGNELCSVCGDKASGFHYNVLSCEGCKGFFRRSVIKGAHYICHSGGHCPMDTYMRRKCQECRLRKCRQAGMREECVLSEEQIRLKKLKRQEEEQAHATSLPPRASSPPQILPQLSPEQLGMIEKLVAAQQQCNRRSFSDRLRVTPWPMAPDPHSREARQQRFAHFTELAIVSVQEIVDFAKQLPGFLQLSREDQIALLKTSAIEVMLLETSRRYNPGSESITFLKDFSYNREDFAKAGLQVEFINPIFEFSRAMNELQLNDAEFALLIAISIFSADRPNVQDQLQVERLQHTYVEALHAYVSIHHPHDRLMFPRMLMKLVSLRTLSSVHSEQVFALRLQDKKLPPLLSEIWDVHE

[9] = target: T2, Nuclear receptor ROR-beta; assay: Affinity On-target Cellular interaction: (Reporter gene assay (HEK293T cells)) EUB0001161a RORB; assay type: functional, cell-based, HEK-293T; design: mode of action Antagonist, recommended concentration 10 uM
[10] = target: T3, Nuclear receptor ROR-alpha; assay: Affinity On-target Cellular interaction: (Reporter gene assay (HEK293T cells)) EUB0001158a RORA; assay type: functional, cell-based, HEK-293T; design: mode of action Inverse Agonist, recommended concentration 1 uM
[11] = target: T1, Nuclear receptor ROR-gamma
[12] = target: T2, Nuclear receptor ROR-beta; assay: Affinity On-target Cellular interaction: (Reporter gene assay (HEK293T cells)) EUB0001158a RORB; assay type: functional, cell-based, HEK-293T; design: mode of action Inverse Agonist, recommended concentration 1 uM
[13] = target: T6, Sodium-dependent neutral amino acid transporter B(0)AT1 (Homo sapiens, UniProt Q695T7); assay: Affinity On-target Cellular interaction: (Fluorescence imaging plate reader (FLIPR) membrane potential (FMP) assay, MDCK cells) EUB0002537a SLC6A19; assay type: functional, cell-based; design: mode of action Inhibitor, recommended concentration 1 uM
[14] = target: T6, Sodium-dependent neutral amino acid transporter B(0)AT1; assay: Affinity On-target Cellular interaction: (Stable isotope uptake assay, MDCK cells) EUB0002537a SLC6A19; assay type: functional, cell-based; design: mode of action Inhibitor, recommended concentration 1 uM
[15] = target: Histone-lysine N-methyltransferase EZH1 (Homo sapiens, UniProt Q92800); assay: Affinity On-target Cellular interaction: (Protein substrate methylation in WSU-DLCL2 cells) EUB0002228a EZH1; assay type: functional, cell-based, WSUDLCL2; design: mode of action Inhibitor, recommended concentration 1 uM
[16] = target: Nuclear receptor subfamily 1 group I member 2 (Homo sapiens, UniProt O75469); assay: Affinity On-target Cellular interaction: (Reporter gene assay (HEK293T cells)) EUB0002358a NR1I2; assay type: functional, cell-based, HEK-293T; design: mode of action Agonist, recommended concentration 10 uM
[17] = target: Nuclear receptor subfamily 1 group D member 1 (Homo sapiens, UniProt P20393); assay: Affinity On-target Cellular interaction: (Reporter gene assay (HEK293T cells)) EUB0001153a NR1D1; assay type: functional, cell-based, HEK-293T; design: mode of action Antagonist, recommended concentration 10 uM

T6 sequence (Q695T7 whole entry): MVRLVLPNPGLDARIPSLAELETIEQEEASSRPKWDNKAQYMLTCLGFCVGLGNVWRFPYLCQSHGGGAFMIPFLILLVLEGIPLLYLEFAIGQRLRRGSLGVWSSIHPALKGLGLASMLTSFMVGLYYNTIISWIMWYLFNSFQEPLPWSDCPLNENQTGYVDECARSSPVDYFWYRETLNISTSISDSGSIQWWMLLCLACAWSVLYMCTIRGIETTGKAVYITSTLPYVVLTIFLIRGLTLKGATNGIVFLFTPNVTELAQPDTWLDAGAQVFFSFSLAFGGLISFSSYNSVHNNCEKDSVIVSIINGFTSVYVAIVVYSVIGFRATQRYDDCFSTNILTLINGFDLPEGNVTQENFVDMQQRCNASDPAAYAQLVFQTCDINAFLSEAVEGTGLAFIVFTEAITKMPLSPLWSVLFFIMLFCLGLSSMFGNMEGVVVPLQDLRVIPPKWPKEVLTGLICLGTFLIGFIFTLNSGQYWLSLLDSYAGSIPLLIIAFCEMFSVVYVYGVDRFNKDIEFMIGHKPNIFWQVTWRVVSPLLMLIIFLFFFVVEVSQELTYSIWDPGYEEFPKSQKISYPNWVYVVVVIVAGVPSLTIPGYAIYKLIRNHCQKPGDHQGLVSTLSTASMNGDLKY
T3 sequence (P35398 whole entry): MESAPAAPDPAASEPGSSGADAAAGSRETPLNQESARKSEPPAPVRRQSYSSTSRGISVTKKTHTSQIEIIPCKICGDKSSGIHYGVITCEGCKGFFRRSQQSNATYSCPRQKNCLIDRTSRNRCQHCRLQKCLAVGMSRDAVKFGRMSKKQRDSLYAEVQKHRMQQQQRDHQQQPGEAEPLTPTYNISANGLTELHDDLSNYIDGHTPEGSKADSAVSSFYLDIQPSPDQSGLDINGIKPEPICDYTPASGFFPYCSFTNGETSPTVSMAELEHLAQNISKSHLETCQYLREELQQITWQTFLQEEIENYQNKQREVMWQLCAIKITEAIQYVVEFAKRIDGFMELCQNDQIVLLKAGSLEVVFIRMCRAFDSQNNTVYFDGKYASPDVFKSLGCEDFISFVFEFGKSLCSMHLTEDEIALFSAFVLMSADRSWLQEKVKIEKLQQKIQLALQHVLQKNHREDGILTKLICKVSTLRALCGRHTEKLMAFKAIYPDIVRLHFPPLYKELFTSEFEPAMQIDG
Sequence of Sodium- and chloride-dependent glycine transporter 1 (P48067 whole entry): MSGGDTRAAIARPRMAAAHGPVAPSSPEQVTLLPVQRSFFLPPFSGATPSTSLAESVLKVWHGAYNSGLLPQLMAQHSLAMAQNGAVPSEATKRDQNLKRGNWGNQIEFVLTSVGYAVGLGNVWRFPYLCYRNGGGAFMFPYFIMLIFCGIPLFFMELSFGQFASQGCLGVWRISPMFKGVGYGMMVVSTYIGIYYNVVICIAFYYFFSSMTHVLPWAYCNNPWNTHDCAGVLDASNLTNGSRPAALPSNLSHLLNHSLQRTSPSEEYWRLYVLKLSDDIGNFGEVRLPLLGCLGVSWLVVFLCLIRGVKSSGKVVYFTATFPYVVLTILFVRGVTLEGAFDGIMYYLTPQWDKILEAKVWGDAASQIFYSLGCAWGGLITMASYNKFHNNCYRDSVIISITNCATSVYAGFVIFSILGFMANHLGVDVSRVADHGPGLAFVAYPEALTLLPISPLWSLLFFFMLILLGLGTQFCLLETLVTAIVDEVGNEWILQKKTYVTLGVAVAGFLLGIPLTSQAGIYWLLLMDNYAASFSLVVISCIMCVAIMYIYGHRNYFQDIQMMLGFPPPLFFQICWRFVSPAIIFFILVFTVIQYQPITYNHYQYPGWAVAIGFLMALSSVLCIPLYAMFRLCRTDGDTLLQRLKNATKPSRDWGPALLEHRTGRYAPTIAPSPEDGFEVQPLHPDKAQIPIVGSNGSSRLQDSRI
Sequence of Histone deacetylase 2 (Q92769 whole entry): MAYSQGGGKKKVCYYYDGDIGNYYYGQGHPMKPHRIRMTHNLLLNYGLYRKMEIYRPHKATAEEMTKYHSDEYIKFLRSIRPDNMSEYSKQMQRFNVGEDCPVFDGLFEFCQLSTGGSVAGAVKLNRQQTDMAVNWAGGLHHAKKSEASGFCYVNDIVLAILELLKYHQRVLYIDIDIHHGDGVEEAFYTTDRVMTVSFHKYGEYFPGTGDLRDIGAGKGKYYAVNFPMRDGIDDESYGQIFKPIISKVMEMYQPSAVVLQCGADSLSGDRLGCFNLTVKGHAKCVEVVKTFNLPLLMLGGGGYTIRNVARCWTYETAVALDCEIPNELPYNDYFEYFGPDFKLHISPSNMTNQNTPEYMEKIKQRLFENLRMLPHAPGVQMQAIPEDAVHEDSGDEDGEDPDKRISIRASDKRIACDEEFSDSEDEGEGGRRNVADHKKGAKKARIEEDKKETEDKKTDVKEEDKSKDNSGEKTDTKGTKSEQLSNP
Sequence of Histone deacetylase 1 (Q13547 whole entry): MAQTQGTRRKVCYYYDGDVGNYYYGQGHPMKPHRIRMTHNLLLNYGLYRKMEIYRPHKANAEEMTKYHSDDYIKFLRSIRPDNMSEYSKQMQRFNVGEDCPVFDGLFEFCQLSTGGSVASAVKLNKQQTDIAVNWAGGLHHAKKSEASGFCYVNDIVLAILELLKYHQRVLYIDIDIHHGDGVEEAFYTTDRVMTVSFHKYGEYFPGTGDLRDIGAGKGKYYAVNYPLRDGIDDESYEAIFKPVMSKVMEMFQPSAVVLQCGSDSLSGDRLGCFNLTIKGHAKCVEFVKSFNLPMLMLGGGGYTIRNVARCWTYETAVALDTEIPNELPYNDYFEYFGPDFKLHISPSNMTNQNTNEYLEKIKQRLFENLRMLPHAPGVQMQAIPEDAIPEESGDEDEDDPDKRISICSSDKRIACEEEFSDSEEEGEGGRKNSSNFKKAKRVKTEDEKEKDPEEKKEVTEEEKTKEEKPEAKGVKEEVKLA
Sequence of Poly [ADP-ribose] polymerase 1 (P09874 whole entry): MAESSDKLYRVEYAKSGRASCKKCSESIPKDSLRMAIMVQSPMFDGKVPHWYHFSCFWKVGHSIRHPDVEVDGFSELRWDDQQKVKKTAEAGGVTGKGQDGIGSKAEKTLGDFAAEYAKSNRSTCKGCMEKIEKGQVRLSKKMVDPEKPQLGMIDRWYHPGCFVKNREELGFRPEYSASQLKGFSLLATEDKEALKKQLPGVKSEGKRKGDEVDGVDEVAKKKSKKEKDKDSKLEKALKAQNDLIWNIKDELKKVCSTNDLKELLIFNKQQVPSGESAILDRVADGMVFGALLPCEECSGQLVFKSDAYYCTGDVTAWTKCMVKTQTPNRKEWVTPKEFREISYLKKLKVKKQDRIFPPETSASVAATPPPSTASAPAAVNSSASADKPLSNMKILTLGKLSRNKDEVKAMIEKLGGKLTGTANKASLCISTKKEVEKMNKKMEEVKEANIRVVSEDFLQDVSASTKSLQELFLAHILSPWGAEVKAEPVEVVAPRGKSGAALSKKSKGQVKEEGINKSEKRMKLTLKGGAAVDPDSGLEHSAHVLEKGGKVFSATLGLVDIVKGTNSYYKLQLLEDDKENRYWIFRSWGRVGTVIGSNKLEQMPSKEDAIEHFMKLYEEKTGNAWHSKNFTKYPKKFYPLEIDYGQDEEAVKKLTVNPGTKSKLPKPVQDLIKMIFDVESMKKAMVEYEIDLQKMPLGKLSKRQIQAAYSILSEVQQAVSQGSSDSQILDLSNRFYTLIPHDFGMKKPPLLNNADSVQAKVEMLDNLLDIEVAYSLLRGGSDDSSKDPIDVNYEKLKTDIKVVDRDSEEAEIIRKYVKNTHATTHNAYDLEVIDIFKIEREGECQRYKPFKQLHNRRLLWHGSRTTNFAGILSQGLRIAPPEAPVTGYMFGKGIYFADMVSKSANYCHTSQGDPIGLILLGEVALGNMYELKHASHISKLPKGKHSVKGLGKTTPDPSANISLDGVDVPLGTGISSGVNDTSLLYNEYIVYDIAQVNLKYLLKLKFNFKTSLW
Sequence of Histone-lysine N-methyltransferase EZH1 (Q92800 whole entry): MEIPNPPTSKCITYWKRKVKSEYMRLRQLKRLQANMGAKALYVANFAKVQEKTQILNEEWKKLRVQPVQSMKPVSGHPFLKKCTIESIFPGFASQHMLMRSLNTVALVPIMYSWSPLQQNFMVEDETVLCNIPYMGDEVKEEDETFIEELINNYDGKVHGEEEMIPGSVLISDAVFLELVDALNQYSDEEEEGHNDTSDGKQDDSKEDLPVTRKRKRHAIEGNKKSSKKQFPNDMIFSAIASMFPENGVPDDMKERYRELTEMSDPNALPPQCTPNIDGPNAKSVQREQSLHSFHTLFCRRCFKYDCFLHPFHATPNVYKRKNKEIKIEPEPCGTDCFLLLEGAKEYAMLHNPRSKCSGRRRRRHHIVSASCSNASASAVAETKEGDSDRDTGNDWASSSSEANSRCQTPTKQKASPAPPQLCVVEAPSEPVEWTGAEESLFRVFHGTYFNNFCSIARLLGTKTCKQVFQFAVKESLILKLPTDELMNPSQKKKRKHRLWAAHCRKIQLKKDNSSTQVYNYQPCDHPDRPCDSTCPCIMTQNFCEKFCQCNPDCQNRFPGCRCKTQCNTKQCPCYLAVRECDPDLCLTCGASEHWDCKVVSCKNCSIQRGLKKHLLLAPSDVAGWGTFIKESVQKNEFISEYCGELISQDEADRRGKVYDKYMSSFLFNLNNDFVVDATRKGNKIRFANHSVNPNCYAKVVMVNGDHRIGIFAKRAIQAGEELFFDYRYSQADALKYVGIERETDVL
Sequence of Monoacylglycerol lipase ABHD6 (Q9BV23 whole entry): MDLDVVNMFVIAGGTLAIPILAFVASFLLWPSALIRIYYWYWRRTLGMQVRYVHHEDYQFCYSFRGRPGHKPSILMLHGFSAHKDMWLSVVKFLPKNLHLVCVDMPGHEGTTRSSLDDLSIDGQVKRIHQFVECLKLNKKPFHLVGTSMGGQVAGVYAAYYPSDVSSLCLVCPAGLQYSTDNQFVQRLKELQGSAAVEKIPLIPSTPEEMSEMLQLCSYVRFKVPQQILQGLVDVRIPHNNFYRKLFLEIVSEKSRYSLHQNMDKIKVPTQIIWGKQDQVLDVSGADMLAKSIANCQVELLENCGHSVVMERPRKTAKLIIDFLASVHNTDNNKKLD

CN(CCOc1ccc(-c2ccc3c(c2)OCO3)cc1C(C)(C)C)CC(=O)O
pIC50 [1]: 7.80

O=C(c1cccc(-c2ccc(-c3cn(C(=O)N4CCCCC4c4ccccc4)nn3)cc2)c1)N1CCCCC1 (centres undefined)
pIC50 [2]: 9.68

O=S(=O)(Nc1ccc(C(O)(C(F)(F)F)C(F)(F)F)cc1)c1cccs1
pIC50 [3]: 5.49 | pIC50 [4]: 5.82 | pIC50 [5]: 6.30

Nc1ccc(-c2cccs2)cc1NC(=O)c1ccc(NC=O)cc1
pIC50 (Histone deacetylase 2): 6.52 | pIC50 (Histone deacetylase 1): 6.52

CNCc1ccc(-c2cc3cc(F)cc(C(N)=O)c3o2)cc1
pIC50 [6]: 7.16

C[C@H](CCOc1cccc(CC(=O)O)c1)N(Cc1cccc(C(F)(F)F)c1Cl)CC(c1ccccc1)c1ccccc1
pEC50 [7]: 5.54 | pEC50 [8]: 5.48

COc1cc(O)c(C(CC(=O)N2C[C@H](C)C[C@H](C)C2)c2ccc3c(c2)OCO3)c(OC)c1 (some centres undefined)
pIC50 [9]: 5.89

CC(=O)Nc1nc(C)c(S(=O)(=O)Nc2ccc(C(O)(C(F)(F)F)C(F)(F)F)cc2)s1
pIC50 [10]: 6.05 | pIC50 [11]: 6.96 | pIC50 [12]: 5.96

CCNC(=O)/C=C/c1cccc(Br)c1 [CINROMIDE]
pIC50 [13]: 6.55 | pIC50 [14]: 6.43

CCN(c1cc(C#CCN2CCOCC2)cc(C(=O)NCc2c(C)cc(C)[nH]c2=O)c1C)[C@H]1CC[C@H](N(C)CCOC)CC1
pIC50 [15]: > 7.00

O=c1[nH]c2ccccc2n1CCCN1CCN(C(c2ccccc2)c2ccccc2)CC1 [OXATOMIDE]
pEC50 [16]: 5.22

CCOC(=O)C1Cc2ccccc2CN1C(=O)c1ccc(SC)s1 (centres undefined)
pIC50 [17]: 6.33
